Laboratory results reported in patent publication US5618726A, “Biodegradable azo dyes” (priority 1994, dated 1997).

Legend:
[1] = test system: S. chromofuscus A11 extracellular peroxidase; assay: Oxidation of azo dyes by S. chromofuscus A11 crude enzyme preparation; format: biochemical, Streptomyces chromofuscus A11; details: pH 8, 37° C., H2O2
Method: Environ. Microbiol., 1988, 54:3057-3063. […] Microbiol. Biotechnol., 34:661-667. Incubation took place at 37° C. with shaking at 250 rpm. The culture supernatant was collected after 48 h incubation, and vacuum-filtered through Whatman no. 1 filter paper. The filtrate was concentrated approximately 40- to 50-fold by ultrafiltration through an Amicon ultrafiltration stirred cell (series no. 8000, Amicon Corp.) with a disc PM-10 filter (diameter, 76 mm). Protein in the concentrated filtrate was then precipitated from solution with 80% ammonium sulfate. The precipitate was collected by centrifugation (15 min, 10,000 rpm). The pellet was resuspended in 10 ml of 20 mM HEPES buffer (pH 8) and dialyzed overnight against the same buffer at 4° C. These preparations were then stored in 1-ml aliquots at -20° C. until used. Before using, the preparation was filtered through a NAP-25 Sephadex G-25 disposable column (Pharmacia) in order to separate a yellowish protein fraction from a pink low-molecular-weight fraction. The yellowish fraction was used as the source of enzyme. […] The reaction was started with the addition of 100 μl of 50 mM H2 O2 and was followed for 1 min at 37° C. Controls were run with no addition of H2 O2 or with the addition of the hemeperoxidase inhibitor KCN (final concentration 25 μM).

[2] = target: T1, horseradish peroxidase type II (Armoracia rusticana, UniProt P00433); assay: Oxidation of azo dyes by horseradish peroxidase preparation; format: biochemical; details: pH 8, 37° C., H2O2
T1 sequence (P00433 31-338): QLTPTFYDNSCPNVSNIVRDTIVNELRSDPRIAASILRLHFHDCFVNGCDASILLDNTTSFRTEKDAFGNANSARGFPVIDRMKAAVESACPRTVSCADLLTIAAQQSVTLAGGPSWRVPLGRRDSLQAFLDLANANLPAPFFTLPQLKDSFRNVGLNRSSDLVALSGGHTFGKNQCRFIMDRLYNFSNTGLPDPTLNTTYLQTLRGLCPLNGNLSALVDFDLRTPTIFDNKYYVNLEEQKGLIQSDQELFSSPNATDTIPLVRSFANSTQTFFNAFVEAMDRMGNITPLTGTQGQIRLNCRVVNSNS
Method: The reaction was started with the addition of 100 μl of 50 mM H2 O2 and was followed for 1 min at 37° C. Controls were run with no addition of H2 O2 or with the addition of the hemeperoxidase inhibitor KCN (final concentration 25 μM).

ligninase = assay: Oxidation of dyes by P. chrysosporium ligninase (crude preparation); format: biochemical, Phanerochaete chrysosporium; details: crude enzyme, conditions specific for ligninase
Method: The peroxidase assay was carried out using a composition having a final volume of 1.0 ml. The reaction mixture contained 250 μl of 100 mM HEPES buffer (pH 8), 500 μl of 10 mM 2,4-dichlorophenol, 100 μl of 1 mM aminoantipyrine, 50 μl enzyme preparation and 100 μl 50 mM H2 O2. The reaction was initiated by the addition of hydrogen peroxide at 37° C. One unit of peroxidase activity was expressed as the amount of enzyme required for an increase of one absorbance-unit-per-minute at 510 nm. Assays of manganese peroxidase and of ligninase from P. chrysosporium were carried out as previously described by Paszczynski et al in "Manganese peroxidase of Phanerochaete chrysosporium: Purification," Methods Enzymol. 161:264-270, incorporated herein by reference. […] Biophys., 1986, 44:750-765. Preparation and assay of ligninase and manganese peroxidase from these P. chrysosporium cultures were carried out as previously reported by Paszczynski, et al., Methods Enzymol., 1988, 161:264-270. […] Purification," Methods Enzymol. 161:264-270. […] Cycle time was 30 seconds with the last measure after 15 minutes. […] The reaction conditions were the same as for acid yellow 9. No decolorization of the synthesized dyes by ligninase was detected.

[3] = test system: Phanerochaete chrysosporium; assay: Substrate removal / decolorization by P. chrysosporium culture; format: cell-based; details: for % Decolorization, P. chrysosporium: 14 days
Method: Environ. Microbiol., 1981, 42:290-296), with the addition of 75 mg adenine (6-aminopurine) and 27 mg L-phenylalanine-per-liter. This addition accelerated the growth of the fungus without inhibiting ligninase activity. […] […] Cultures were incubated at 37° C. for 7 to 15 days with shaking (250 rpm). Solid agar media were also employed.

Mn(II)-peroxidase = assay: Oxidation of dyes by P. chrysosporium Mn(II)-peroxidase; format: biochemical, Phanerochaete chrysosporium; details: crude enzyme, conditions specific for Mn(II)-peroxidase
Method: The peroxidase assay was carried out using a composition having a final volume of 1.0 ml. The reaction mixture contained 250 μl of 100 mM HEPES buffer (pH 8), 500 μl of 10 mM 2,4-dichlorophenol, 100 μl of 1 mM aminoantipyrine, 50 μl enzyme preparation and 100 μl 50 mM H2 O2. The reaction was initiated by the addition of hydrogen peroxide at 37° C. One unit of peroxidase activity was expressed as the amount of enzyme required for an increase of one absorbance-unit-per-minute at 510 nm. Assays of manganese peroxidase and of ligninase from P. chrysosporium were carried out as previously described by Paszczynski et al in "Manganese peroxidase of Phanerochaete chrysosporium: Purification," Methods Enzymol. 161:264-270, incorporated herein by reference. […] Biophys., 1986, 44:750-765. Preparation and assay of ligninase and manganese peroxidase from these P. chrysosporium cultures were carried out as previously reported by Paszczynski, et al., Methods Enzymol., 1988, 161:264-270. […] Purification," Methods Enzymol. 161:264-270. […] Cycle time was 10 seconds, with the last measure after three minutes of incubation.

[4] = beginning concentration 100 ppm
[5] = beginning concentration 150 ppm
[6] = beginning concentration 200 ppm
[7] = beginning concentration 300 ppm

Structure (SMILES) | Oxidation rate of azo dyes, S. chromofuscus peroxidase [1] | Oxidation rate of azo dyes, Horseradish peroxidase [2] | Oxidation rate of azo dyes, P. chrysosporium Ligninase (ligninase) | Concentration of substrate after ten days cultivation with P. chrysosporium [3, 4] | Concentration of substrate after ten days cultivation with P. chrysosporium [3, 5] | Concentration of substrate after ten days cultivation with P. chrysosporium [3, 6] | Concentration of substrate after ten days cultivation with P. chrysosporium [3, 7] | % Decolorization, P. chrysosporium ([3]; initial concn 150 ppm) | % Decolorization, P. chrysosporium ([3]; initial concn 300 ppm) | Oxidation rate of azo dyes, P. chrysosporium Mn-peroxidase (Mn(II)-peroxidase)
O=S(=O)(O)c1ccc(N=Nc2ccc(O)cc2)cc1 [compound 6] | 0.42 μmoles per minute per ml | 0.47 μmoles per minute per ml | 0.45 μmoles per minute per ml | 12.909 ppm | 14.003 ppm | 33.309 ppm | 39.326 ppm | 72% | 18% | 0.02 μmoles per minute per ml
Cc1cc(O)c(N=Nc2ccc(S(=O)(=O)O)cc2)cc1C [compound 7] | 0.19 μmoles per minute per ml | 0.34 μmoles per minute per ml | 1.35 μmoles per minute per ml | 62.893 ppm | 41.044 ppm | 10.200 ppm | 246.044 ppm | 81% | 55% | 0.11 μmoles per minute per ml
Cc1ccc(O)c(N=Nc2ccc(S(=O)(=O)O)cc2)c1 [compound 8] | 0.14 μmoles per minute per ml | 0.07 μmoles per minute per ml | 0.49 μmoles per minute per ml | 16.079 ppm | 28.401 ppm | 29.704 ppm | 135.680 ppm | 27% | 49% | 0.32 μmoles per minute per ml
CCc1ccc(O)c(N=Nc2ccc(S(=O)(=O)O)cc2)c1 [compound 9] | 0.35 μmoles per minute per ml | 0.20 μmoles per minute per ml | 1.27 μmoles per minute per ml | 81.911 ppm | 109.822 ppm | 32.044 ppm | 153.733 ppm | 89% | 86% | 0.07 μmoles per minute per ml
O=S(=O)(O)c1ccc(N=Nc2cc(F)c(O)c(F)c2)cc1 [compound 12] | 0.15 μmoles per minute per ml | 0.17 μmoles per minute per ml | 11.61 μmoles per minute per ml | 2.368 ppm | 44.227 ppm | 6.160 ppm | 198.240 ppm | 86% | 93% | 0.00 μmoles per minute per ml
CN(C)c1ccc(N=Nc2ccc(S(=O)(=O)O)cc2)cc1 [compound 14] | 0.10 μmoles per minute per ml | 0.07 μmoles per minute per ml | 0.32 μmoles per minute per ml | 4.411 ppm | 11.843 ppm | 15.529 ppm | 36.800 ppm | 93% | 94% | 0.15 μmoles per minute per ml
COc1ccc(N=Nc2ccc(S(=O)(=O)O)cc2)cc1 [compound 16] | 0.06 μmoles per minute per ml | 0.06 μmoles per minute per ml | 0.25 μmoles per minute per ml | 67.801 ppm | 92.683 ppm | 179.300 ppm | 219.079 ppm | 61% | 55% | 0.00 μmoles per minute per ml
COc1ccc(N=Nc2ccc(S(=O)(=O)O)cc2)cc1OC [compound 17] | 0.50 μmoles per minute per ml | 0.32 μmoles per minute per ml | 1.03 μmoles per minute per ml | 29.803 ppm | 58.942 ppm | 93.250 ppm | 136.057 ppm | 79% | 74% | 0.72 μmoles per minute per ml
O=S(=O)(O)c1ccc(N=Nc2c(O)ccc3ccccc23)cc1 [compound 31] | 0.09 μmoles per minute per ml | 0.52 μmoles per minute per ml | 1.18 μmoles per minute per ml | – | – | – | – | – | – | 0.47 μmoles per minute per ml
